In US20230115176A1 (Ra Pharmaceuticals, Inc., priority 2019, published 2023):
pIC50, pKd: −log10 of the molar value. Converted amounts (≈) assume the structure as drawn.

What was measured:
[1] = biological target: T1, human C5 complement protein (Homo sapiens, UniProt P01031); assay: Surface plasmon resonance (SPR), immobilized human C5, 37° C. (Example 27, Table 31); format: binding; conditions: lowest value obtained where a range of concentrations was analyzed (Table 31)
[2] = Kinetic solubility in PBS pH 7.4, HPLC-UV (Example 21, Table 27); format: physicochemical; conditions: phosphate buffered saline, aqueous buffer, kinetic from dmso stock, 0.5 M PBS, shaken minimum 24 h at approximately 25° C., HPLC-UV 270 nm
Method in brief: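 10 mM DMSO stock diluted into 0.05 M PBS pH 7.4 (5% DMSO final), in triplicate, shaken ≥24 h at ~25 °C, then filtered by centrifugation. Supernatant concentration by HPLC-UV at 270 nm against external DMSO standards (15.6–500.0 μM).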

Human C5 = biological target: T2, Human C5 (Homo sapiens, UniProt P01031); assay: Red blood cell (RBC) hemolysis assay, luminescent (Example 28, Table 32); format: cell-based; conditions: sheep EA cells, 1.5% C5-depleted human serum, 0.5 nM human C5, 1 hour at 37° C., luminescence (Table 32)
T2 construct: purchased Complement Technology
T2 sequence (P01031 19-1676): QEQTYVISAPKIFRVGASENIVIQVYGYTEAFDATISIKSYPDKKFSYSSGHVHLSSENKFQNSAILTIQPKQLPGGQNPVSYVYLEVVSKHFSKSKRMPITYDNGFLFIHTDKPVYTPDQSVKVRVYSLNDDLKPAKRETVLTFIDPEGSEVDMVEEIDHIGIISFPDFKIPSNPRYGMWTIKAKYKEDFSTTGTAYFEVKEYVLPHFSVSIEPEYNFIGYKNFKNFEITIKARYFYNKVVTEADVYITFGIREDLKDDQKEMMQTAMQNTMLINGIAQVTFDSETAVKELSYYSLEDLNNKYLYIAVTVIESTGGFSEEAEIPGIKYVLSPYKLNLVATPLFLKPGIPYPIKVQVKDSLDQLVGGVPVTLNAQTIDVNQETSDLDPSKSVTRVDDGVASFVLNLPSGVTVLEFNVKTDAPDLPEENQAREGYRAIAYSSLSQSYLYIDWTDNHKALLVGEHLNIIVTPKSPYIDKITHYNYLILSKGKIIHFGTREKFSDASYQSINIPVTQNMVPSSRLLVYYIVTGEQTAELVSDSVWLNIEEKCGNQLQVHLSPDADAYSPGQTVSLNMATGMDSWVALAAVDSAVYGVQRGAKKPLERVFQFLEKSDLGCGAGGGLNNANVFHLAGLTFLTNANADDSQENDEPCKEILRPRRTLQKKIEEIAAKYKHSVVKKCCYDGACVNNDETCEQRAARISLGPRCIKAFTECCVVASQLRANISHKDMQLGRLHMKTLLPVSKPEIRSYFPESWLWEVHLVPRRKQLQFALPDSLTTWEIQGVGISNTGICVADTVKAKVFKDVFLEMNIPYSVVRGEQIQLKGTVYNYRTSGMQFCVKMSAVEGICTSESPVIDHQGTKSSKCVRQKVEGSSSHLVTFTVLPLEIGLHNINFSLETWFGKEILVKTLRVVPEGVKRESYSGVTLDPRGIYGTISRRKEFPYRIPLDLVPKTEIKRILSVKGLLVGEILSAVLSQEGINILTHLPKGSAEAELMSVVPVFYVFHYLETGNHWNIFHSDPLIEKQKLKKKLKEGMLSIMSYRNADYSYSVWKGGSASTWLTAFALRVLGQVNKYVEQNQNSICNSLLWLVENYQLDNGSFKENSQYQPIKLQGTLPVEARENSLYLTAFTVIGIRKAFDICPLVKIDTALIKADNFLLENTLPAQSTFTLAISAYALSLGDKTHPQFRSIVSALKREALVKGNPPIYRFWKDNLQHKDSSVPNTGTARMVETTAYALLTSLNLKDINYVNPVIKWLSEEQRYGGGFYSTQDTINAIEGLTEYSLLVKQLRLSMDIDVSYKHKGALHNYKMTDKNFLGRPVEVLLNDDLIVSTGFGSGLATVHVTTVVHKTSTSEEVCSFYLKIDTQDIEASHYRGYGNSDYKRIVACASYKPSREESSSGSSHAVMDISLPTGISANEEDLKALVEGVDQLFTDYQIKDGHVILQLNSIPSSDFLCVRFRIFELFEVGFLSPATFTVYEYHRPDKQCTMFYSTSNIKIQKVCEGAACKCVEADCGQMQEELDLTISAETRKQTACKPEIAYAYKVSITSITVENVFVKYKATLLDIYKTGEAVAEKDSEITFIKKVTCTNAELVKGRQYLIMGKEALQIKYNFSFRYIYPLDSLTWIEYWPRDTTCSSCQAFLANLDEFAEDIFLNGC
Experimental: Sheep red blood cells coated with rabbit anti-sheep erythrocyte antiserum (EA cells; Complement Technology, Tyler, Tex.) were used to assay compound inhibitory activity of the classical complement activation pathway. Briefly, the EA cells were washed once and resuspended in the same volume of GVB++ buffer (Complement Technology, Tyler, Tex.). 25 μL of EA cells were then distributed into each well of 384-well tissue culture plates using Apricot iPipette Pro (Apricot Designs; Covina, Calif.). Compounds were tested in 10 points of final concentrations ranging from 16.67 μM to 1.65 μM in a 6-fold titration series. Compounds were dispensed into 384-well plates from 6.7 mM and 3.35 μM DMSO working stocks using an HP Digital Dispenser (HP; Corvallis, Oreg.). The reactions also contained 1.5% (v/v) C5-depleted human serum (Complement Technology). Hemolysis was induced by addition of human C5 (Complement Technology) at a concentration of 0.5 nM and plates were incubated for 1 hour at 37° C. in a cell culture incubator. The extent of hemolysis was measured by ability of released hemoglobin to catalyze luminol in the presence of hydrogen peroxide. Luminescence was then measured using a plate reader. Luminescence measurements were used to prepare a dose-response curve. From the curve, the half maximal inhibitory concentration (IC50) for each compound was determined, where the IC50 represents the concentration of each compound needed to reduce red blood cell hemolysis by half.

[3] = Permeability assay, unidirectional transport, Papp (Example 30, Table 34); format: in vitro ADME, canine; conditions: dog, pH 7.4; MDCK-WT cell monolayers, A-to-B, 3 μM test compound, 37° C., duplicate determinations
Experimental: Permeability assays were carried out to provide a preliminary indication of suitability for oral dosing and compound permeability across the blood brain barrier. Unidirectional and bidirectional compound transport across Madin Darby canine kidney (MDCK) cell monolayers was assessed. For unidirectional transport assessment, transport across MDCK wild type (MDCK-WT) cell monolayers was assessed. For bidirectional transport, transport across MDCK-MDR1 cell monolayers was assessed. MDCK-MDR1 cells express the MDR1 gene encoding the P-glycoprotein (P-gp) efflux protein.
MDCK-WT and MDCK-MDR1 cells were plated onto permeable polycarbonate supports in 12-well Costar transwell plates and allowed to grow and differentiate for 3 days. After 3 days in culture, the culture medium (DMEM supplemented with 10% FBS) was removed from both sides of the transwell inserts and cells were rinsed with warm HBSS. After the rinse step, the chambers were filled with warm transport buffer (HBSS containing 10 mM HEPES, 0.25% BSA, pH 7.4) and the plates were pre-incubated at 37° C. for 30 minutes prior to TEER (Trans Epithelial Electric Resistance) measurements.
The buffer in the donor chamber (apical side for A-to-B assay, basolateral side for B-to-A assay) was removed and replaced with the working solution (3 μM test compound and 10 μM for control compounds in transport buffer). The plates were then placed at 37° C. under light agitation. At designated time points (30, 60 and 90 min), an aliquot of transport buffer from the receiver chamber was removed and replenished with fresh transport buffer. Samples were quenched with ice-cold ACN containing internal standard and then centrifuged to pellet protein. Resulting supernatants were further diluted with 50/50 ACN/H2O (Atenolol diluted in just water) and submitted for LC-MS/MS analysis. Apparent permeability (Pap) values were calculated from duplicate determinations. Atenolol and propranolol were tested as low and […] permeability references.
Papp values indicate extent of compound permeation across monolayers.

[4] = biological target: T1, human C5 complement protein; assay: Surface plasmon resonance (SPR), immobilized human C5, 37° C. (Example 18, Table 24); format: binding; conditions: lowest value obtained where a range of concentrations was analyzed

T1 sequence (P01031 19-1676): as above

With `CCCCCOc1cc(N2CC(CO)CN(Cc3ccc(CC(=O)N4CCCC4)cc3OC)C2=O)ccc1OC` (stereo not shown) [SC0184] the pKd [1] was 8.53, the solubility kinetic [2] was 411 µM (≈ 228 µg/mL) and the pIC50 (Human C5) was 8.24.
For `CCCCCOc1cc(N2CC[C@H](C)N(Cc3ccnc4c3c(Cl)cn4CC(=O)N3CC(C)(O)C3)C2=O)ccc1OC` [SC0111], the Papp A→B at 3 μM [3] was 2.5 ×10⁻⁶ cm/s and the pIC50 (Human C5) was 8.89.
Molecule `CCCCCOc1cc(N2CC[C@H](C)N(Cc3cccc4c3ccn4CC(=O)N3CCO[C@@H](CN(C)C)C3)C2=O)ccc1OC` [SC0171] has a Papp A→B at 3 μM [3] of 2 ×10⁻⁶ cm/s, a solubility kinetic [2] of 356 µM (≈ 221 µg/mL) and a pIC50 (Human C5) of 8.43.
`COc1ccc(N2CC[C@H](C)N(Cc3cccc4c3c(Cl)cn4CC(=O)N(C)C)C2=O)cc1OCCCC1CC1` [SC0116] gave a pKd [1] of 10.70, a solubility kinetic [2] of less than 10 µM and a pIC50 (Human C5) of 8.85.
With `COc1cc(CC(=O)N2CCO[C@H](CN(C)C)C2)ccc1CN1C(=O)N(c2ccc(OC)c(OCCCC3CC3)c2)CC[C@@H]1C` [SC0134] the Papp A→B at 3 μM [3] was 2.2 ×10⁻⁶ cm/s, the solubility kinetic [2] was 266 µM (≈ 166 µg/mL) and the pIC50 (Human C5) was 8.74.
`CCCCCOc1cc(N2CC[C@H](C)N(Cc3cccc4c3c(C)cn4CC(=O)N(C)C3CCN(CC)C3)C2=O)ccc1OC` (stereo partly shown) [SC0105] gave a pKd [1] of 10.10, a solubility kinetic [2] of 399 µM (≈ 247 µg/mL) and a pIC50 (Human C5) of 8.96.
Molecule `CCCCCOc1cc(N2CC[C@H](C)N(Cc3cccc4c3c(C)cn4CC(=O)N3CCCOCC3)C2=O)ccc1OC` [SC0103] has a pKd [1] of 10.10, a solubility kinetic [2] of 24 µM (≈ 14.2 µg/mL) and a pIC50 (Human C5) of 9.00.
Work on `COc1cc(Cc2ccncn2)ccc1CN1C(=O)N(c2ccc(OC)c(OCCCC3CC3)c2)CC[C@@H]1C` [SC0102] yielded a Papp A→B at 3 μM [3] of 18.2 ×10⁻⁶ cm/s and a pIC50 (Human C5) of 9.05.
With `CCCCCOc1cc(N2CC[C@H](C)N(Cc3cccc4[nH]cc(C)c34)C2=O)ccc1OC` [SC0148] the pKd [1] was 9.04, the solubility kinetic [2] was less than 10 µM and the pIC50 (Human C5) was 8.66.
Molecule `CCN1CC[C@@H](N(C)C(=O)Cc2ccc(CN3C(=O)N(c4ccc(OC)c(OCCCC5CC5)c4)CC[C@@H]3C)c(OC)c2)C1` [SC0144] has a Papp A→B at 3 μM [3] of 3 ×10⁻⁶ cm/s and a pIC50 (Human C5) of 8.68.
In the case of `CCCCCOc1cc(N2CCCN(Cc3ccnc4c3c(Cl)cn4CC(=O)N3CC[C@@H](N(C)C)C3)C2=O)ccc1OC` [CU0520], the Papp A→B at 3 μM [3] was 3.9 ×10⁻⁶ cm/s and the solubility kinetic [2] was 366 µM (≈ 224 µg/mL).
With `CCCCCOc1cc(N2CCCN(Cc3ccnc4c3c(Cl)cn4CC(=O)N3CC[C@@H](OC)C3)C2=O)ccc1OC` [CU0534] the Papp A→B at 3 μM [3] was 17.4 ×10⁻⁶ cm/s, the solubility kinetic [2] was 85 µM (≈ 50.8 µg/mL) and the pKd [4] was 9.44.
Molecule `COc1ccc(N2CC[C@H](C)N(Cc3ccnc4c3c(Cl)cn4CC(=O)N(C)C)C2=O)cc1OCCCC1CC1` [SC0119] has a pKd [1] of 8.92, a solubility kinetic [2] of 65 µM (≈ 36.9 µg/mL) and a pIC50 (Human C5) of 8.85.
Molecule `CCCCCOc1cc(N2CC[C@H](C)N(Cc3cccc4c3c(Cl)cn4CC3=NCCN3C)C2=O)ccc1OC` [SC0169] has a Papp A→B at 3 μM [3] of 1.8 ×10⁻⁶ cm/s and a pIC50 (Human C5) of 8.46.
`CCCCCOc1cc(N2CC[C@H](C)N(Cc3ccnc4c3c(Cl)cn4CC(=O)N3CCC3)C2=O)ccc1OC` [SC0122] gave a pKd [1] of 9.66, a solubility kinetic [2] of 81 µM (≈ 46 µg/mL) and a pIC50 (Human C5) of 8.82.
`CCCCCOc1cc(N2CC[C@H](C)N(Cc3cccc4c3ccn4CC(=O)N(C)CC#N)C2=O)ccc1OC` [SC0168] showed a pKd [1] of 9.10 and a pIC50 (Human C5) of 8.48.
With `COc1ccc(N2CCCN(Cc3ccnc4c3c(Cl)cn4CC(=O)N3CCOC(CN(C)C)C3)C2=O)cc1OCCCC1CC1` (stereo not shown) [CU0523] the Papp A→B at 3 μM [3] was 0.7 ×10⁻⁶ cm/s and the solubility kinetic [2] was 486 µM (≈ 317 µg/mL).
`COc1cc(CC(N)=O)ccc1CN1CC(C)CN(c2ccc(OC)c(OCCCC3CC3)c2)C1=O` (stereo not shown) [SC0179] showed a pKd [1] of 9.06 and a pIC50 (Human C5) of 8.31.
`CCCCCOc1cc(N2CC[C@H](C)N(Cc3ccnc4c3c(Cl)cn4CC(=O)N3CCOC(CN(C)C)C3)C2=O)ccc1OC` (stereo partly shown) [SC0156] showed a Papp A→B at 3 μM [3] of 1.3 ×10⁻⁶ cm/s, a solubility kinetic [2] of 348 µM (≈ 228 µg/mL) and a pIC50 (Human C5) of 8.59.
`CCCCCOc1cc(N2CCCN(Cc3ccnc4c3c(Cl)cn4CC(=O)N3CCO[C@H](CN(C)C)C3)C2=O)ccc1OC` [CU0533] showed a Papp A→B at 3 μM [3] of 1.7 ×10⁻⁶ cm/s, a solubility kinetic [2] of 294 µM (≈ 189 µg/mL) and a pKd [4] of 10.25.
For `CCCCCOc1cc(N2CC[C@H](C)N(Cc3cccc4c3ccn4CC(=O)N3CCO[C@H](CN(C)C)C3)C2=O)ccc1OC` [SC0177], the Papp A→B at 3 μM [3] was 1.3 ×10⁻⁶ cm/s, the solubility kinetic [2] was 309 µM (≈ 192 µg/mL) and the pIC50 (Human C5) was 8.33.
